Measurements: patent US6613762B2, “Gambogic acid, analogs and derivatives as activators of caspases and inducers of apoptosis” (Cytovia, Inc., priority 1999, dated 2003)

Columns and labels:
[1] = test system: caspase activity, SHP-77 cells; test: Caspase induction and its inhibition by caspase inhibitor (Example 97), SHP-77; assay type: cell-based, human; set-up: key to Inhibition of caspase activity by Inhibitor: The caspase activity detected was inhibited by the caspase inhibitor (+)
Description: (§1) T47D, ZR-75, PC3, SHP-77 and A-549 cells were maintained and harvested as described in Example 90. Cells were added to 96-well plates as described in Example 90. The cells were treated with 10 μM gambogic acid, in the presence and in the absence of 10 μM caspase inhibitor cbz-Val-Asp-fmk (Cytovia, Inc.; WO99/18781). The plate was incubated up to 24 h at 37° C in a 5% CO2-95% humidity incubator. Caspase activity was determined by addition of a fluorogenic substrate as described in Example 90.
(§2) Gambogic acid induced caspase activity in a ratio of greater than 2.5 (+) above untreated cell levels in all the tested cancer cell lines (Table IV). The caspase activity detected was inhibited by the caspase inhibitor (+), confirming that the fluorescent signal was due to caspase activity.

[2] = test system: human non-small cell lung cancer cell line A-549; test: Inhibition of cell proliferation (GI50) and cell death (LC50), A-549; assay type: cell-based; settings: A-549, 48 h; read-out: GI50 (dose for 50% inhibition of cell proliferation)
Description: (§3) T47D, ZR-75-1, PC-3, human prostate cancer cell line DU-145, human non-small cell lung cancer cell line A-549, human small cell lung cancer cell line SHP-77, HL-60 and MRC-5 cells were grown and harvested as in Example 90. […] The samples were mixed by agitation and incubated at 37° C. for 2-4 h in a 5% CO2-95% humidity incubator. […] This determines the possible background absorbance of the test compounds. No absorbance for gambogic acid or its analogs or derivatives was found at 490 nm. After the 2-4 h incubation, the samples were read for absorbance as above (ATest).
(§4) Baseline for GI50 (dose for 50% inhibition of cell proliferation) and LC50 (dose for 50% cell death) of initial cell numbers was determined by adding an aliquot of 90 μl of cells or 90 μl of media, respectively, to wells of a 96-well microtiter plate containing 10 μl of a 10% DMSO in RPMI-1640 media solution. […] The samples were mixed by agitation and incubated at 37° C. for 2-4 h in a 5% CO2-95% humidity incubator. Absorbance was read as above, (AT=0) defining absorbance for initial cell number used as baseline in GI50 determinations and (Amin) defining absorbance for media alone used as baseline in LC50 determinations.
(§5) GI50 (dose for 50% inhibition of cell proliferation)
(§6) LC50 (dose for 50% cell death)
(§7) 50=100×[(ATest−Amin)/(AT=0−Amin)]

[3] = test system: poly(ADP)ribose polymerase (PARP) cleavage, T47D cells; test: PARP cleavage western blot, T47D cells; assay type: cell-based, human
Description: (§8) Cleavage of the enzyme poly(ADP)ribose polymerase (PARP) by caspase-3 and related proteases is considered to be one of the molecular hallmarks of caspase-mediated apoptosis. Therefore, the ability of gambogic acid to induce PARP cleavage in four different human tumor cell lines (Jurkat cells, HL-60 cells, T47D cells and PC3 cells) was determined.
(§9) Cells were cultured in complete growth medium containing 10% FBS and treated with gambogic acid at concentrations of 2.5 μM or 5 μM for 2 to 4 h. Control cultures were treated with a drug vehicle (DMSO), or the well-characterized apoptosis inducer, staurosporine. At the end of the apoptosis induction period, the cells were harvested, washed once with PBS, quick-frozen on dry ice, and stored at −80° C. The cells were then lysed in a standard immunoblotting lysis buffer and samples of the lysates were electrophoresed on 4% to 20% gradient polyacrylamide gels. The proteins in the gels were then transferred to PVDF membranes and probed with a commercially-available rabbit polyclonal antibody to PARP.

[4] = test system: HeLa cells; settings: reported by Asano et al., Phytochemistry 41:815-820 (1996); cited from earlier work
[5] = test system: caspase activity, ZR-75 cells; test: Caspase induction and its inhibition by caspase inhibitor (Example 97), ZR-75; assay type: cell-based, human; set-up: key to Inhibition of caspase activity by Inhibitor: The caspase activity detected was inhibited by the caspase inhibitor (+)
Description: as §1, §2

[6] = test system: poly(ADP)ribose polymerase (PARP) cleavage, PC3 cells; test: PARP cleavage western blot, PC3 cells; assay type: cell-based, human; settings: 5 μM, 4 h (FIG. 5D)
Description: as §8, §9

[7] = test system: KB cell line; settings: reported by Lin et al., Magn. Reson. Chem. 31:340-347 (1993); cited from earlier work
[8] = test system: T47D breast cancer cells; test: Nuclear fragmentation in T47D breast cancer cells (Syto16 stain); assay type: cell-based, human; settings: 10 μM, 24 h (FIG. 2B)
Description: T47D cells were grown and plated as described in Example 90. The cells were treated with 10 μM of gambogic acid and the plate was incubated for up to 24 h at 37° C. in a 5% CO2-95% humidity incubator. At 24 h, the cells were incubated with a live cell nucleic acid stain, Syto16 (Molecular Probes) which stains DNA. After 2 washes with PBS, cells were examined under a fluorescence microscope. […] Nuclear fragmentation is a clear indicator of cellular apoptosis.

[9] = test system: HEL cells; settings: reported by Asano et al., Phytochemistry 41:815-820 (1996); cited from earlier work
[10] = test system: caspase activity, PC-3 cells; test: Caspase induction and its inhibition by caspase inhibitor (Example 97), PC-3; assay type: cell-based, human; set-up: key to Inhibition of caspase activity by Inhibitor: The caspase activity detected was inhibited by the caspase inhibitor (+)
Description: as §1, §2

[11] = test system: MRC-5 cells; test: Inhibition of cell proliferation (GI50) and cell death (LC50), MRC-5; assay type: cell-based; settings: MRC-5, 48 h
Description: as §3, §4, §5, §6, §7

[12] = test system: human small cell lung cancer cell line SHP-77; test: Inhibition of cell proliferation (GI50) and cell death (LC50), SHP-77; assay type: cell-based; settings: SHP-77, 48 h
Description: as §3, §4, §5, §6, §7

[13] = test system: T47D cells; test: Morphological change of T47D cells (phase contrast); assay type: cell-based, human; settings: 2.5 μM
Description: In addition, apoptotic adherent cells in culture lose their ability to remain attached to the culture dish. The ability of gambogic acid to trigger these morphological changes in T47D cells was investigated.
60 mm culture dishes were seeded with 750,000 T47D cells and the cultures were incubated under normal growth conditions (complete medium with 10% FBS) for 24 h. The cells were then treated with 2.5 μM of gambogic acid and further incubated under normal growth conditions for 2 or 6 h. Morphological changes were documented by photographing the cells under phase contrast illumination.

[14] = read-out: GI50 (dose for 50% inhibition of cell proliferation)
[15] = read-out: LC50 (dose for 50% cell death)

**Q.** With `CC(C)=CCC[C@]1(C)C=Cc2c(O)c3c(c(CC=C(C)C)c2O1)O[C@]12C(=C[C@@H]4C[C@H]1C(C)(C)O[C@@]2(C/C=C(/C)C(=O)O)C4=O)C3=O` [Example 1, Gambogic Acid] as the compound, how does the “Inhibition of caspase activity by Inhibitor” value (“Inhibition of caspase activity” for short) ([1]; SHP-77, 10 μM gambogic acid with 10 μM caspase inhibitor cbz-Val-Asp-fmk) read?
**A.** +

**Q.** What about the Caspase activity ([1]; SHP-77, 10 μM gambogic acid, up to 24 h) of the same compound?
**A.** + (Gambogic acid induced caspase activity in a ratio of greater than 2.5 (+) above untreated cell levels)

**Q.** And the GI50 [2]?
**A.** 800 nM

**Q.** What about the PARP cleavage ([3]; 2.5 μM and 5 μM, 4 h (FIG. 5C)) of the same compound?
**A.** almost complete PARP cleavage

**Q.** And the PARP cleavage ([3]; 2.5 μM, 2 h (FIG. 5C))?
**A.** moderate induction of PARP cleavage

**Q.** And the PARP cleavage ([3]; 5 μM, 2 h (FIG. 5C))?
**A.** almost complete PARP cleavage

**Q.** And the “Cytotoxicity to HeLa cells” value [4]?
**A.** cytotoxic

**Q.** And the “Inhibition of caspase activity” value ([5]; ZR-75, 10 μM gambogic acid with 10 μM caspase inhibitor cbz-Val-Asp-fmk)?
**A.** +

**Q.** And the Caspase activity ([5]; ZR-75, 10 μM gambogic acid, up to 24 h)?
**A.** + (Gambogic acid induced caspase activity in a ratio of greater than 2.5 (+) above untreated cell levels)

**Q.** And the PARP cleavage [6]?
**A.** a moderate amount of PARP cleavage product

**Q.** And the “Cytotoxicity against KB cell line” value [7]?
**A.** cytotoxic

**Q.** What about the “Nuclear fragmentation (Syto16 nuclear staining)” value [8] of the same compound?
**A.** condensed and fragmented nuclei in a large population of the cells

**Q.** What about the “Cytotoxicity to HEL cells” value [9] of the same compound?
**A.** cytotoxic

**Q.** What about the “Inhibition of caspase activity” value ([10]; PC-3, 10 μM gambogic acid with 10 μM caspase inhibitor cbz-Val-Asp-fmk) of the same compound?
**A.** +

**Q.** What about the Caspase activity ([10]; PC-3, 10 μM gambogic acid, up to 24 h) of the same compound?
**A.** + (Gambogic acid induced caspase activity in a ratio of greater than 2.5 (+) above untreated cell levels)

**Q.** What about the GI50 [11, 14] of the same compound?
**A.** 400 nM

**Q.** And the CC50 [11, 15]?
**A.** 500 nM

**Q.** What about the GI50 [12, 14] of the same compound?
**A.** 500 nM

**Q.** And the CC50 [12, 15]?
**A.** 500 nM

**Q.** What about the “Morphological change of T47D cells” value ([13]; 2 h (FIG. 1B)) of the same compound?
**A.** many of the cells have taken on a rounded, phase-bright morphology

**Q.** What about the “Morphological change of T47D cells” value ([13]; 6 h (FIG. 1C)) of the same compound?
**A.** most of the cells in the culture are rounded up and are beginning to detach from the dish
